# Data from US6323340A, “Phthalocyanine compound, method for production thereof, and near infrared absorption dye using the compound” (Nippon Shobukai Co., Ltd., priority 1999, dated 2001).
# Tests used:
# [1] = transmittance to the visible ray of chloroform solution (JIS R3106); format: physicochemical; details: 1 cm quartz cell, lowest transmittance at 750 to 1050 nm set to 5 to 6%
# Protocol: In a quartz cell of 1 cm, this phthalocyanine compound was diluted with chloroform until the lowest value of the transmittance at 750 to 1050 nm reached a level in the range of 5 to 6%.
# [2] = maximum absorption wavelength and absorptivity coefficient in toluene (spectrophotometer); format: physicochemical; details: for Absorptivity Coefficient ε: at maximum absorption wavelength
# Protocol: By the use of a spectrophotometer (Shimadzu Seisakusho Ltd., UV-3100), the phthalocyanine compound obtained in this example [VOPc(2,5-Cl2 PhO)8 (2,6-Br2 -4-CH3 PhO)4 {Ph(CH3)CHNH}3 F] was tested for the maximum absorption wavelength and the absorptivity coefficient in toluene.
# [3] = solubility in toluene and methylethyl ketone at room temperature; details: 25° C.
# Protocol: At a room temperature (25° C.), the phthalocyanine compound was gradually dissolved in each the solutions of toluene and methylethyl ketone (MEK) (each 10 ml in volume). The solutions in the process of dissolving the compound were visually examined to find the finally dissolved amounts of the compound, i.e. the concentrations (solubility) of the phthalocyanine compound as a solute in the saturated solutions.
Transmittance to Visible Ray [1] [%],Maximum Absorption Wavelength [2] [nm],Absorptivity Coefficient ε [2],Substance,Solubility MEK ([3]; methylethyl ketone),Solubility Toluene ([3]; toluene)
85,810,154000,"CuPc(2,5-Cl2 PhO)8 (2,6-(CH3)2 PhO)4 (PhCH2 NH)4 [Example 8]",–,–
83,880,128200,"VOPc(2,5-Cl2 PhO)8 (2,6-(CH3)2 Pho)4 (PhCH2 NH)4 [Example 7]",–,–
81,834,83000,"VOPc(4-CNPhO)8 (2,6-(CH3)2 PhO)4 {Ph(CH3)CHNH}3 F [Example 6]",.circleincircle. (a solubility of not less than 5% by weight),.circleincircle. (a solubility of not less than 5% by weight)
79,920,130800,"VOPc(PhS)8 (2,6-(CH3)2 PhO)4 (PhCH2 NH)4 [Example 9]",–,–

# More lines, now with the values behind:
Substance,Transmittance to Visible Ray [1] [%],Maximum Absorption Wavelength [2] [nm],Absorptivity Coefficient ε [2],Solubility MEK ([3]; methylethyl ketone),Solubility Toluene ([3]; toluene)
"VOPc(2,5-Cl2 PhO)8 (2,6-(CH3)2 PhO)4 {Ph(CH3)CHNH}3 F [Example 3]",82,834,84000,–,–
"VOPc(2,5-Cl2 PhO)8 (2,6-Br2 -4-CH3 PhO)4 {Ph(CH3)CHNH}3 F [Example 1]",79,835,76000,–,–
"VOPc(2,5-Cl2 PhO)8 (2,6-Br2 -4-CH3 PhO)4 {PhCH2 NH}3 F [Example 2]",81,840,68000,–,–
"VOPc(2,6-Cl2 PhO)8 (2,6-(CH3)2 PhO)4 {Ph(CH3)CHNH}3 F [Example 4]",83,835,92000,–,–
"VOPc(4-CNPhO)8 (2,6-Br2 -4-CH3 PhO)4 {Ph(CH3)CHNH}3 F [Example 5]",80,836,72000,–,–
"VOPc(PhNH)8 (PhS)8 [Control 1, reference compound]",50,950,–,–,–
"octafluoro-octakisanilino oxyvanadium phthalocyanine [Control 2, reference compound]",48,860,–,–,–
